Measurements taken from patent US20090233960A1, “Kinase Inhibitors” (Devgen NV, priority 2005, published 2009).
“Also recorded” adds a separate entry of the source.

Each molecule was assayed against T1, human ROCKI/ROCKII mix (Homo sapiens, UniProt O75116) (assay: ROCK inhibition, fluorescence polarization (FP) IMAP assay). Settings: 10 μM ATP.
T1 construct: purchased Upstate Biotechnology 14451
T1 sequence (O75116 11-552 limits assumed): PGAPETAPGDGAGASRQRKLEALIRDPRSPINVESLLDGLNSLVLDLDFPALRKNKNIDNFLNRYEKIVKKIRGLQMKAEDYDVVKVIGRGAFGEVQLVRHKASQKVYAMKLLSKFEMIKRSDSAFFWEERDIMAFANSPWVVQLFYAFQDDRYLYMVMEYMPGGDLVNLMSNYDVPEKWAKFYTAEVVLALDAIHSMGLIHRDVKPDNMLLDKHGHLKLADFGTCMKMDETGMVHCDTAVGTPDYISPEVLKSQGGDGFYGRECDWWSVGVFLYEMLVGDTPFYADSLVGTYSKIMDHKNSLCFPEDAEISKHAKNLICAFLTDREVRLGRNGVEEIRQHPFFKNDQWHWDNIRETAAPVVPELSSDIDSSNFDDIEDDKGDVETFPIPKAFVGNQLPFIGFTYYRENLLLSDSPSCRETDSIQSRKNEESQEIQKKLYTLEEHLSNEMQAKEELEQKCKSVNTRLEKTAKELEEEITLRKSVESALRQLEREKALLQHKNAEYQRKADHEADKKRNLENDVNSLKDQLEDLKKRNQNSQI
Type: biochemical
Protocol: The compounds of the invention were tested for inhibition of human ROCKI/ROCKII mix.
The inhibition assays were performed with a fluorescence polarization (FP) assay using the commercially available ROCK IMAP Kit from Molecular Devices (Product ID. No. R8093) essentially in accordance with the protocol supplied by the manufacturer. The S6 ribosomal protein-derived substrate used was (Fl)-[…], also obtained from Molecular Devices (Product ID No. R7184). The enzyme mix ROCKI/ROCKII was obtained from Upstate Biotechnology (Product ID No 14451).
In summary, all compounds were screened in the wells of a 384 well plate for enzymatic inhibition with concentrations varying from 100 μM to 0.3 nM using a stepwise three (or two)-fold dilution.
To perform the assay, 1 μl of a solution of the compound to be tested in DMSO (at each concentration) was added to 2 μl of a solution of the enzyme in 10 mM Tris-HCl, 10 mM MgCl2, 0.1% BSA, 0.05% NaN3, pH 7,2. The final concentration of the enzyme was 2.6 nM.
After incubating for 30 minutes at room temperature, 2 μl of a mixture of ATP and the protein substrate in 10 mM Tris-HCl, 10 mM MgCl2, 0.1% BSA, 0.05% NaN3, pH 7.2 was added. The final concentration of the ATP was 10 μM and final concentration of protein substrate was 0.2 μM.
After incubating for 60 minutes at room temperature, 12 μl of the IMAP Binding Solution (mix of the IMAP Binding Buffer A (1×) and the IMAP Binding Reagent (from the ROCK IMAP kit)) was added.
The mixture thus obtained (total volume: 17 μl) was incubated for 60 minutes at room temperature, upon which the fluorescence polarization was measured using an automated plate reader (Perkin Elmer, Model Envision 2100-0010 HTS) with FP filters: excitation filter FITC FP 480 and emission filters FITC FP P-pol 535 and FITC FP S-pol 535 (Perkin-Elmer). The results were fitted to a curve using the XL-Fit algorithm and IC50 values were calculated for each fitted curve, again using the XL-Fit algorithm.
For `CC(N)c1ccc(C(=O)Nc2ccncc2)cc1O` (stereo not drawn) [Compound 1, 4-(1-amino-ethyl)-3-hydroxy-N-pyridin-4-yl-benzamide], the IC50 was 500 to 5000 nM. Molecule `CC(N)c1ccc(C(=O)Nc2ccncc2)cc1[N+](=O)[O-]` (stereo not drawn) [Compound 2, 4-(1-amino-ethyl)-3-nitro-N-pyridin-4-yl-benzamide] has an IC50 of 50 to 500 nM. `CC(N)c1ccc(C(=O)Nc2ccncc2)cc1N` (stereo not drawn) [Compound 3, 3-amino-4-(1-amino-ethyl)-N-pyridin-4-yl-benzamide] showed an IC50 of 500 to 5000 nM. Molecule `CC(N)c1ccc(C(=O)Nc2ccncc2)cc1-c1ccc(Cl)cc1` (stereo not drawn) [Compound 4, 6-(1-amino-ethyl)-4′-chloro-biphenyl-3-carboxylic acid pyridin-4-ylamide] has an IC50 of less than 50 nM. Work on `CC(N)c1ccc(C(=O)Nc2ccncc2)cc1-c1cccs1` (stereo not drawn) [Compound 5, 4-(1-amino-ethyl)-N-pyridin-4-yl-3-thiophen-2-yl-benzamide] yielded an IC50 of less than 50 nM. With `COc1ccc(-c2cc(C(=O)Nc3ccncc3)ccc2C(C)N)cc1` (stereo not drawn) [Compound 6, 6-(1-amino-ethyl)-4′-methoxy-biphenyl-3-carboxylic acid pyridin-4-ylamide] the IC50 was 50 to 500 nM. In the case of `CC(N)c1ccc(C(=O)Nc2ccncc2)cc1-c1ccoc1` (stereo not drawn) [Compound 7, 4-(1-amino-ethyl)-3-furan-3-yl-N-pyridin-4-yl-benzamide], the IC50 is reported as 50 to 500 nM. `CC(N)c1ccc(C(=O)Nc2ccncc2)cc1OCCO` (stereo not drawn) [Compound 8, 4-(1-amino-ethyl)-3-(2-hydroxy-ethoxy)-N-pyridin-4-yl-benzamide] showed an IC50 of 500 to 5000 nM. Molecule `CC(N)c1ccc(C(=O)Nc2ccncc2)cc1OCCCO` (stereo not drawn) [Compound 9, 4-(1-amino-ethyl)-3-(3-hydroxy-propoxy)-N-pyridin-4-yl-benzamide] has an IC50 of 500 to 5000 nM. `CC(N)c1ccc(C(=O)Nc2ccncc2)cc1OCCN` (stereo not drawn) [Compound 10, 3-(2-amino-ethoxy)-4-(1-amino-ethyl)-N-pyridin-4-yl-benzamide] was tested, and the IC50 was 500 to 5000 nM. `CC(N)c1ccc(C(=O)Nc2ccncc2)cc1OCCCN` (stereo not drawn) [Compound 11, 4-(1-amino-ethyl)-3-(3-amino-propoxy)-N-pyridin-4-yl-benzamide] gave an IC50 of 500 to 5000 nM. `CC(N)c1ccc(C(=O)Nc2ccncc2)cc1OCc1ccccc1` (stereo not drawn) [Compound 12, 4-(1-amino-ethyl)-3-benzyloxy-N-pyridin-4-yl-benzamide] gave an IC50 of 50 to 500 nM. In the case of `CC(N)c1ccc(C(=O)Nc2ccncc2)cc1NC(=S)Nc1ccccc1` (stereo not drawn) [Compound 13, 4-(1-amino-ethyl)-3-(3-phenyl-thioureido)-N-pyridin-4-yl-benzamide], the IC50 is reported as 50 to 500 nM. For `CC(N)c1ccc(C(=O)Nc2ccncc2)cc1NC(=O)Nc1ccccc1` (stereo not drawn) [Compound 14, 4-(1-amino-ethyl)-3-(3-phenyl-ureido)-N-pyridin-4-yl-benzamide], the IC50 was 50 to 500 nM. Work on `CC(N)c1ccc(C(=O)Nc2ccncc2)cc1NCc1ccco1` (stereo not drawn) [Compound 16, 4-(1-amino-ethyl)-3-[(furan-2-ylmethyl)-amino]-N-pyridin-4-yl-benzamide] yielded an IC50 of 50 to 500 nM. `CC(N)c1ccc(C(=O)Nc2ccncc2)cc1NC(=O)c1ccccc1` (stereo not drawn) [Compound 17, 4-(1-amino-ethyl)-3-benzoylamino-N-pyridin-4-yl-benzamide] showed an IC50 of 50 to 500 nM. `CC(N)c1ccc(C(=O)Nc2ccncc2)cc1NC(=O)c1ccco1` (stereo not drawn) [Compound 18, furan-2-carboxylic acid [2-(1-amino-ethyl)-5-(pyridin-4-ylcarbamoyl)-phenyl]-amide] was tested, and the IC50 was 50 to 500 nM. For `COc1cccc(C(=O)Nc2cc(C(=O)Nc3ccncc3)ccc2C(C)N)c1` (stereo not drawn) [Compound 19, 4-(1-amino-ethyl)-3-(3-methoxy-benzoylamino)-N-pyridin-4-yl-benzamide], the IC50 was less than 50 nM. With `CC(N)c1ccc(C(=O)Nc2ccncc2)cc1NC(=O)c1cccc(Cl)c1` (stereo not drawn) [Compound 20] the IC50 was 50 to 500 nM. `COc1ccc(C(=O)Nc2cc(C(=O)Nc3ccncc3)ccc2C(C)N)cc1` (stereo not drawn) [Compound 21, 4-(1-Amino-ethyl)-3-(4-methoxy-benzoylamino)-N-pyridin-4-yl-benzamide] showed an IC50 of less than 50 nM. `CC(N)c1ccc(C(=O)Nc2ccncc2)cc1NC(=O)c1ccc(Cl)cc1` (stereo not drawn) [Compound 22, 4-(1-Amino-ethyl)-3-(4-chloro-benzoylamino)-N-pyridin-4-yl-benzamide] showed an IC50 of 50 to 500 nM. In the case of `CC(N)c1ccc(C(=O)Nc2ccncc2)cc1-c1cccc(Cl)c1` (stereo not drawn) [Compound 24, 6-(1-aminoethyl)-3′-chloro-N-pyridin-4-ylbiphenyl-3-carboxamide], the IC50 is reported as less than 50 nM. In the case of `CC(N)c1ccc(C(=O)Nc2ccncc2)cc1-c1ccc(F)cc1` (stereo not drawn) [Compound 26, 6-(1-aminoethyl)-4′-fluoro-N-pyridin-4-ylbiphenyl-3-carboxamide], the IC50 is reported as less than 50 nM. Molecule `CC(N)c1ccc(C(=O)Nc2ccncc2)cc1-c1ccc2ccccc2c1` (stereo not drawn) [Compound 32, 4-(1-aminoethyl)-3-(2-naphthyl)-N-pyridin-4-ylbenzamide] has an IC50 of less than 50 nM. Molecule `C[C@@H](N)c1ccc(C(=O)Nc2ccncc2)cc1-c1cccs1` [Compound 103, 4-((R)-1-Amino-ethyl)-N-pyridin-4-yl-3-thiophen-2-yl-benzamide] has an IC50 of less than 50 nM. `C[C@H](N)c1ccc(C(=O)Nc2ccncc2)cc1-c1cccs1` [Compound 104, 4-((S)-1-Amino-ethyl)-N-pyridin-4-yl-3-thiophen-2-yl-benzamide] gave an IC50 of 50 to 500 nM.

The molecules below were run on spontaneous hypertensive rats (SHRs) (assay: Activity on hypertension in spontaneous hypertensive rats (SAP and heart rate)). Settings: SHR, 10 mg/kg, single oral dose.
Type: in vivo, rat
Protocol: The efficiency of compounds of the invention to reduce and/or treat hypertension in an acute model was evaluated using spontaneous hypertensive rats (SHRs).
Compounds were administered as one single dose to SHR. Systolic arterial pressure (SAP) and heart rate were recorded before (−1 hr) and 1, 3, 5, 7, and 24 hours after oral administration of vehicle or test compound.
A reduction in SAP by 10 percent or more (>10%), or a decrease in heart rate by 20 percent or more (>20%), relative to baseline was considered significant.
`C[C@@H](N)[C@H]1CC[C@H](C(=O)Nc2ccncc2)CC1` [Compound Y-27632] was tested, and the “hypotensive response (systolic arterial pressure)” value was “not significant; also recorded: completely inactive”.
